# Results from ChEMBL document CHEMBL3885861, “Open TG-GATES”.
# Organism: Rattus norvegicus
# Test: Open TG-GATES - Regimen: Single
# Assay type: toxicity, organism-based, Sprague-Dawley
# Parameters: regimen Single, gender Male, age 6 weeks
# Conditions: in vivo, po, route gavage; for AST / BUN / CRE / Ca / Cl / DBIL / GLC / IP / K / LDH / Na / PL / RALB / TBIL / TC / TG / TP / gamma-GTP / A/G / ALP / ALT: tissue Plasma; for APTT / Bas / Eos / Fbg / Hb / Ht / Lym / MCH / MCHC / MCV / Mono / Neu / PT / Plat / RBC / Ret / WBC: tissue Blood; for KIDNEY_L / KIDNEY_R / KIDNEY_TOTAL: tissue Kidney; for LIVER: tissue Liver
# [1] = 100 mg/kg, 24 h, dose level High
# [2] = 100 mg/kg, 24 h, dose level Low
# [3] = 300 mg/kg, 3 h, dose level Middle
# [4] = 300 mg/kg, 6 h, dose level Middle
smiles,measurement,setting,value
O=C1CN(/N=C/c2ccc([N+](=O)[O-])o2)C(=O)N1 [NITROFURANTOIN],AST,"100 mg/kg, 9 h, dose level Low",66 IU/L
same,BUN,"100 mg/kg, 9 h, dose level Low",14.8 mg/dL
same,CRE,"100 mg/kg, 9 h, dose level Low",0.4 mg/dL
same,Ca,"100 mg/kg, 9 h, dose level Low",11.2 mg/dL
same,Cl,"100 mg/kg, 9 h, dose level Low",105 meq/L
same,DBIL,"100 mg/kg, 9 h, dose level Low",0.01 mg/dL
same,GLC,"100 mg/kg, 9 h, dose level Low",187.2 mg/dL
same,IP,"100 mg/kg, 9 h, dose level Low",7.8 mg/dL
same,K,"100 mg/kg, 9 h, dose level Low",4.8 meq/L
same,LDH,"100 mg/kg, 9 h, dose level Low",62.8 IU/L
same,Na,"100 mg/kg, 9 h, dose level Low",138.2 meq/L
same,PL,"100 mg/kg, 9 h, dose level Low",137.8 mg/dL
same,RALB,"100 mg/kg, 9 h, dose level Low",3.8 g/dL
same,TBIL,"100 mg/kg, 9 h, dose level Low",0.03 mg/dL
same,TC,"100 mg/kg, 9 h, dose level Low",77.8 mg/dL
same,TG,"100 mg/kg, 9 h, dose level Low",91.2 mg/dL
same,TP,"100 mg/kg, 9 h, dose level Low",5.6 g/dL
same,gamma-GTP,"100 mg/kg, 9 h, dose level Low",1 IU/L
same,TERMINAL_BW,[1],237.1 g
same,TERMINAL_BW,[2],213.4 g
same,APTT,[1],18.4 s
same,Bas,[1],0%
same,Eos,[1],1%
same,Fbg,[1],214.8 mg/dL
same,Hb,[1],13.5 g/dL
same,Ht,[1],38.6%
same,Lym,[1],79.6%
same,MCH,[1],22.1 pg
same,MCHC,[1],35.2%
same,MCV,[1],62.9 fL
same,Mono,[1],2.6%
same,Neu,[1],15.2%
same,PT,[1],12.3 s
same,Plat,[1],116.3 x10_4/uL
same,RBC,[1],614.4 x10_4/ul
same,Ret,[1],6.9%
same,WBC,[1],90.9 x10_2/uL
same,APTT,[2],16.1 s
same,Eos,[2],0.8%
same,Fbg,[2],227 mg/dL
same,Hb,[2],13.1 g/dL
same,Ht,[2],40%
same,Lym,[2],74.8%
same,MCH,[2],20.8 pg
same,MCHC,[2],32.7%
same,MCV,[2],63.7 fL
same,Mono,[2],10.2%
same,Neu,[2],14.2%
same,PT,[2],12 s
same,Plat,[2],129.7 x10_4/uL
same,RBC,[2],628.4 x10_4/ul
same,Ret,[2],5.8%
same,WBC,[2],76.3 x10_2/uL
same,KIDNEY_L,[1],1.1 g
same,KIDNEY_R,[1],1.1 g
same,KIDNEY_TOTAL,[1],2.1 g
same,KIDNEY_L,[2],1 g
same,KIDNEY_R,[2],1 g
same,LIVER,[1],12.4 g
same,LIVER,[2],10.4 g
same,A/G,[1],1.6
same,ALP,[1],970.4 IU/L
same,ALT,[1],39.2 IU/L
same,AST,[1],63.4 IU/L
same,BUN,[1],15.8 mg/dL
same,CRE,[1],0.4 mg/dL
same,Ca,[1],10.8 mg/dL
same,Cl,[1],102.4 meq/L
same,DBIL,[1],0.1 mg/dL
same,GLC,[1],219.8 mg/dL
same,IP,[1],7.3 mg/dL
same,K,[1],4.3 meq/L
same,LDH,[1],196.4 IU/L
same,Na,[1],139.6 meq/L
same,PL,[1],159.2 mg/dL
same,RALB,[1],3.3 g/dL
same,TBIL,[1],0.2 mg/dL
same,TC,[1],79.2 mg/dL
same,TG,[1],112.4 mg/dL
same,TP,[1],5.4 g/dL
same,gamma-GTP,[1],0.6 IU/L
same,A/G,[2],2.2
same,ALP,[2],1379.2 IU/L
same,ALT,[2],32.6 IU/L
same,AST,[2],62.6 IU/L
same,BUN,[2],15.4 mg/dL
same,Ca,[2],11.1 mg/dL
same,Cl,[2],105.4 meq/L
same,DBIL,[2],0.01 mg/dL
same,GLC,[2],194.2 mg/dL
same,IP,[2],9.1 mg/dL
same,K,[2],4.7 meq/L
same,LDH,[2],73.4 IU/L
same,Na,[2],141 meq/L
same,PL,[2],150.8 mg/dL
same,RALB,[2],3.8 g/dL
same,TBIL,[2],0.028 mg/dL
same,TC,[2],85.8 mg/dL
same,TG,[2],118.6 mg/dL
same,TP,[2],5.6 g/dL
same,gamma-GTP,[2],0 IU/L
same,TERMINAL_BW,[3],206.1 g
same,APTT,[3],16.4 s
same,Bas,[3],0%
same,Eos,[3],1%
same,Fbg,[3],227.6 mg/dL
same,Hb,[3],13.2 g/dL
same,Ht,[3],40.2%
same,Lym,[3],72.2%
same,MCH,[3],21.2 pg
same,MCHC,[3],32.9%
same,MCV,[3],64.5 fL
same,Mono,[3],5%
same,Neu,[3],21.8%
same,PT,[3],11.9 s
same,Plat,[3],123.8 x10_4/uL
same,RBC,[3],623.2 x10_4/ul
same,Ret,[3],7.6%
same,WBC,[3],84.5 x10_2/uL
same,KIDNEY_L,[3],0.9 g
same,KIDNEY_R,[3],0.9 g
same,KIDNEY_TOTAL,[3],1.8 g
same,LIVER,[3],8.5 g
same,A/G,[3],2.2
same,ALP,[3],1192.4 IU/L
same,ALT,[3],38 IU/L
same,AST,[3],65 IU/L
same,BUN,[3],12.4 mg/dL
same,CRE,[3],0.4 mg/dL
same,Ca,[3],11.5 mg/dL
same,Cl,[3],103 meq/L
same,DBIL,[3],0.004 mg/dL
same,GLC,[3],185.2 mg/dL
same,IP,[3],10.1 mg/dL
same,K,[3],4.2 meq/L
same,LDH,[3],108.2 IU/L
same,Na,[3],138.6 meq/L
same,PL,[3],131.6 mg/dL
same,RALB,[3],4 g/dL
same,TBIL,[3],0.03 mg/dL
same,TC,[3],86.4 mg/dL
same,TG,[3],37.2 mg/dL
same,TP,[3],5.8 g/dL
same,gamma-GTP,[3],1 IU/L
same,TERMINAL_BW,[4],204.8 g
same,APTT,[4],16.7 s
same,Bas,[4],0%
same,Eos,[4],1.4%
